Laboratory results from PubChem BioAssay AID1963436 (Molecular Pharmacology Branch, DTP, NCI, 2024).

Test system: OVCAR-5 complex spheroid (HUVEC/MSC), viability % T/C
Test: Anticancer human tumor OVCAR-5 cell line growth inhibition [Asc];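 further: spheroids exposed to agents for 7 days before readout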;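 on viability, T/C: 100% = DMSO vehicle-treated wells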
Conditions: for IC50: curve of first compound; for viability, T/C: stronger effect = lower value
Method: Multicellular complex tumor spheroid response to apoptosis pathway targeting inhibitors Alrizomadlin, Pelcitoclax, and Dasminapant in combination with a variety of drugs and investigational agents in selected tumor cell lines
The MDM2 inhibitor alrizomadlin, the Bcl-2/Bcl-xL inhibitor pelcitoclax, and the IAPs inhibitor dasminapant were evaluated both individually and in combination with standard of care and investigational anticancer small molecules within a complex spheroid model of solid tumors. . Complex spheroids include a stromal component modeled by human endothelial cells (HUVEC) and fibroblasts modeled by human mesenchymal stem cells (MSCs). The concentration ranges selected for each drug and investigational agent were based upon clinically achievable concentrations if the clinical Cmax of the agent was known.
Compounds. The drugs and investigational agents: alrizomadlin (APG-115; NSC831270), pelcitoclax (APG-1252; NSC835773), dasminapant (APG-1387;NSC834197), TAK-243 (NSC785004), copanlisib (NSC809693), olaparib (NSC753686), talazoparib (NSC767125), cobimetinib (NSC 768068), eltanexor (KPT-8602, NSC 794443), abemaciclib (NSC 768073), sotorasib (NSC818433), adagrasib (NSC 831453), MRTX-1133 (NSC 836407), Iadademestat (ORY1001, NSC 806812), and RMC-4630 (NSC839698), were obtained from the NCI Developmental Therapeutics Program Chemical Repository. The FDA-approved anticancer drug set is available from the Developmental Therapeutics Program at https://dtp.cancer.gov/organization/dscb/obtaining/available plates.htm. […] The stock solutions were prepared in dimethyl sulfoxide (DMSO, Sigma-Aldrich, St. Louis, MO, cat. D2650) at 800-fold the tested concentration and stored at -70 degrees C prior to their use. All drugs and investigational agents were tested over a range starting from a high concentration at or near the clinical Cmax and decreasing in half-log increments. If the clinical Cmax for an agent had not been determined, the highest concentration tested was 10 microM.
The patient-derived cancer (PDC) cell lines include five colon adenocarcinomas: 186277-243-T-J2-PDC, 616215-338-R-J1-PDC, 439559-082-T-J2-PDC, 463943-066-T-J2-PDC, and 519858-162-T-J1-PDC; three pancreatic carcinomas: 323965-272-R-J2-PDC, 521955-158-R6-J3-PDC, and 521955-158-R2-J5-PDC; two uterine sarcomas: 327498-152-R-J2-PDC and 993429-296-R-J1-PDC; two rhabdomyosarcomas: 755483-174-R-J1-PDC and 772245-204-R-J1-PDC; two soft tissue sarcomas: 126254-015-R-J1-PDC and 494315-158-R-J1-PDC; two malignant fibrous histiocytomas: 317291-083-R-J1-PDC and 596521-263-R-J1-PDC; two breast carcinomas: 171881-019-R-J1-PDC and 885512-296-R-J2-PDC; and one ovarian carcinoma: 6556581-035-R-J-PDC were obtained from the NCI PDMR, (https://pdmr.cancer.gov). The established cell lines HSSY-2 synovial sarcoma (RRID:CVCL 8719), SYO-1 synovial sarcoma (RRID:CVCL_7146), MPNST malignant peripheral neural sheath tumor were obtained from the Sloan Kettering Institute. The following established cell lines were purchased from the American Type Culture Collection (ATCC, Manassas, VA), Sor the received from the NCI repository:, PANC-1 pancreatic carcinoma (CRL-1469, RRID:CVCL_0480), OVCAR-5 ovarian carcinoma (RRID:CVCL_1628), OVCAR-8 ovarian carcinoma (RRID:CVCL_1629), , MCF-7 breast carcinoma (CRL-12584, RRID:CVCL_0031), MDA-MB-231 breast carcinoma (CRL-12532, RRID:CVCL_0062), NCI-H1876 small cell lung carcinoma (CRL-5902, RRID:CVCL_1503), NCI-H510A small cell lung carcinoma (HTB-184, RRID:CVCL_1565), NCI-H1417 (CRL-5869, RRID:CVCL_1469), and NCI-H196 small cell lung carcinoma (CRL-5823, RRID:CVCL_1509). Dr. Peter Houghton (Greehey Children's Cancer Research Institute, University of Texas Health Science Center, San Antonio, TX) provided Rh-18 rhabdomyosarcoma (RRID:CVCL_1659). Pooled donor human umbilical vein endothelial cells (HUVEC, Lonza, cat. CC-2519) and human mesenchymal stem cells (hMSC, Lonza, cat. PT-2501) were purchased from Lonza (Walkersville, MD).
Cell Culture. […]

SMILES: Cc1nc(N2CCC3(CC2)COC(C)C3N)c(CO)nc1Sc1ccnc(N)c1Cl (stereo not given) + Cc1c(S(C)(=O)=O)c(-c2cc(F)cc(N3CCN(c4ccc(NS(=O)(=O)c5ccc(NC(CCN6CCC(C(=O)OCCCP(=O)(O)O)CC6)CSc6ccccc6)c(S(=O)(=O)C(F)(F)F)c5)cc4)CC3)c2)c(-c2ccc(Cl)cc2)n1C(C)C
- IC50 (second compound 0.1 µM): 1900 nM
- IC50 (second compound 0.316 µM): 1130 nM
- IC50 (second compound 1 µM): 1190 nM
- IC50 (second compound 3.16 µM): 782 nM
- IC50 (second compound 10 µM): 2850 nM
- viability, T/C (second compound 0.1 µM, first compound 0.00949 µM): 96.4%
- viability, T/C (second compound 0.1 µM, first compound 0.03 µM): 83.9%
- viability, T/C (second compound 0.1 µM, first compound 0.0949 µM): 81.7%
- viability, T/C (second compound 0.1 µM, first compound 0.3 µM): 62.8%
- viability, T/C (second compound 0.1 µM, first compound 0.949 µM): 55.7%
- viability, T/C (second compound 0.1 µM, first compound 3 µM): 46.9%
- viability, T/C (second compound 0.316 µM, first compound 0.00949 µM): 95.8%
- viability, T/C (second compound 0.316 µM, first compound 0.03 µM): 85.1%
- viability, T/C (second compound 0.316 µM, first compound 0.0949 µM): 73.9%
- viability, T/C (second compound 0.316 µM, first compound 0.3 µM): 55.6%
- viability, T/C (second compound 0.316 µM, first compound 0.949 µM): 55.2%
- viability, T/C (second compound 0.316 µM, first compound 3 µM): 42.9%
- viability, T/C (second compound 1 µM, first compound 0.00949 µM): 78.1%
- viability, T/C (second compound 1 µM, first compound 0.03 µM): 76.9%
- viability, T/C (second compound 1 µM, first compound 0.0949 µM): 72.4%
- viability, T/C (second compound 1 µM, first compound 0.3 µM): 68.4%
- viability, T/C (second compound 1 µM, first compound 0.949 µM): 51.1%
- viability, T/C (second compound 1 µM, first compound 3 µM): 42.6%
- viability, T/C (second compound 3.16 µM, first compound 0.00949 µM): 87.7%
- viability, T/C (second compound 3.16 µM, first compound 0.03 µM): 85%
- viability, T/C (second compound 3.16 µM, first compound 0.0949 µM): 72.5%
- viability, T/C (second compound 3.16 µM, first compound 0.3 µM): 59.9%
- viability, T/C (second compound 3.16 µM, first compound 0.949 µM): 45.6%
- viability, T/C (second compound 3.16 µM, first compound 3 µM): 46.9%
- viability, T/C (second compound 10 µM, first compound 0.00949 µM): 105%
- viability, T/C (second compound 10 µM, first compound 0.03 µM): 94%
- viability, T/C (second compound 10 µM, first compound 0.0949 µM): 88.6%
- viability, T/C (second compound 10 µM, first compound 0.3 µM): 87.3%
- viability, T/C (second compound 10 µM, first compound 0.949 µM): 64.8%
- viability, T/C (second compound 10 µM, first compound 3 µM): 49%

SMILES: CCN1CCN(Cc2ccc(Nc3ncc(F)c(-c4cc(F)c5nc(C)n(C(C)C)c5c4)n3)nc2)CC1 + Cc1c(S(C)(=O)=O)c(-c2cc(F)cc(N3CCN(c4ccc(NS(=O)(=O)c5ccc(NC(CCN6CCC(C(=O)OCCCP(=O)(O)O)CC6)CSc6ccccc6)c(S(=O)(=O)C(F)(F)F)c5)cc4)CC3)c2)c(-c2ccc(Cl)cc2)n1C(C)C
- IC50 (second compound 0.1 µM): > 1000 nM
- IC50 (second compound 0.316 µM): > 1000 nM
- IC50 (second compound 1 µM): > 1000 nM
- IC50 (second compound 3.16 µM): > 1000 nM
- IC50 (second compound 10 µM): > 1000 nM
- viability, T/C (second compound 0.1 µM, first compound 0.00316 µM): 94.7%
- viability, T/C (second compound 0.1 µM, first compound 0.01 µM): 83.5%
- viability, T/C (second compound 0.1 µM, first compound 0.0316 µM): 66%
- viability, T/C (second compound 0.1 µM, first compound 0.1 µM): 61.5%
- viability, T/C (second compound 0.1 µM, first compound 0.316 µM): 69.6%
- viability, T/C (second compound 0.1 µM, first compound 1 µM): 56.1%
- viability, T/C (second compound 0.316 µM, first compound 0.00316 µM): 79.4%
- viability, T/C (second compound 0.316 µM, first compound 0.01 µM): 74.1%
- viability, T/C (second compound 0.316 µM, first compound 0.0316 µM): 68.6%
- viability, T/C (second compound 0.316 µM, first compound 0.1 µM): 56.1%
- viability, T/C (second compound 0.316 µM, first compound 0.316 µM): 61.8%
- viability, T/C (second compound 0.316 µM, first compound 1 µM): 57%
- viability, T/C (second compound 1 µM, first compound 0.00316 µM): 80.1%
- viability, T/C (second compound 1 µM, first compound 0.01 µM): 80.4%
- viability, T/C (second compound 1 µM, first compound 0.0316 µM): 63.5%
- viability, T/C (second compound 1 µM, first compound 0.1 µM): 55%
- viability, T/C (second compound 1 µM, first compound 0.316 µM): 58.3%
- viability, T/C (second compound 1 µM, first compound 1 µM): 50.8%
- viability, T/C (second compound 3.16 µM, first compound 0.00316 µM): 77%
- viability, T/C (second compound 3.16 µM, first compound 0.01 µM): 72.9%
- viability, T/C (second compound 3.16 µM, first compound 0.0316 µM): 63.9%
- viability, T/C (second compound 3.16 µM, first compound 0.1 µM): 48.6%
- viability, T/C (second compound 3.16 µM, first compound 0.316 µM): 58.4%
- viability, T/C (second compound 3.16 µM, first compound 1 µM): 47.9%
- viability, T/C (second compound 10 µM, first compound 0.00316 µM): 107%
- viability, T/C (second compound 10 µM, first compound 0.01 µM): 97.7%
- viability, T/C (second compound 10 µM, first compound 0.0316 µM): 81.5%
- viability, T/C (second compound 10 µM, first compound 0.1 µM): 47%
- viability, T/C (second compound 10 µM, first compound 0.316 µM): 54.3%
- viability, T/C (second compound 10 µM, first compound 1 µM): 49.1%
